In the test the target is T1, human 5-HT6 receptor (Homo sapiens, UniProt P50406).
T1 construct: host or cells: CHO-K1 cells, stably transfected; membranes prepared in house
T1 sequence (P50406 whole entry): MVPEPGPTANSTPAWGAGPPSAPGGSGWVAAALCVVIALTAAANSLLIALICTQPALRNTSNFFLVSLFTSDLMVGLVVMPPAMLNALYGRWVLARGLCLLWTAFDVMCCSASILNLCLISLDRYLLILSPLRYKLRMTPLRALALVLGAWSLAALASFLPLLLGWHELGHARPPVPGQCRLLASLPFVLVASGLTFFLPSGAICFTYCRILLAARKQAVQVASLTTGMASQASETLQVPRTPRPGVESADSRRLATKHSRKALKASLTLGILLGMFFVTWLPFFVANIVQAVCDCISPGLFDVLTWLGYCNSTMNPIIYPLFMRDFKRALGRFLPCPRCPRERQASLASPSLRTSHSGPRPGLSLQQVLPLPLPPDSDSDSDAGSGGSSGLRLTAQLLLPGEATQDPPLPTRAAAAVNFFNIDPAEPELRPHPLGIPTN
The test is described as follows: Human 5-HT6 Receptor Binding Assay ([3H]LSD displacement, scintillation beads). To be noted: membranes of CHO-K1 cells with recombinant human 5-HT6, 4 nM [3H]LSD; Table 1, class symbols; read-out: h5-HT6 (Ki).
The term Ki denotes a dissociation constant, usually derived from enzyme kinetics or from competition with a known ligand. As to `Cc1ccc(S(=O)(=O)Oc2ccc3c(c2)C2CCNCC2O3)cc1` (stereo not shown) [Example 700], the Ki was less than 0.5 µM. Under `O=S(=O)(Oc1ccc2c(c1)C1CCNCC1O2)c1cccc(F)c1` (stereo not shown) [Example 701] stands more than 1 µM; under `O=S(=O)(Oc1ccc2c(c1)C1CCNCC1O2)c1ccc(F)cc1` (stereo not shown) [Example 702], more than 1 µM; under `Cc1noc(C)c1S(=O)(=O)Oc1ccc2c(c1)C1CCNCC1O2` (stereo not shown) [Example 703], more than 1 µM. Take `Cc1ccc(C)c(S(=O)(=O)Oc2ccc3c(c2)C2CCNCC2O3)c1` (stereo not shown) [Example 704]: the Ki was less than 0.5 µM.

Turning to `Cc1cc(C)cc(S(=O)(=O)Oc2ccc3c(c2)C2CCNCC2O3)c1` (stereo not shown) [Example 705], the Ki is less than 0.5 µM. On to `Cc1ccc(S(=O)(=O)Oc2ccc3c(c2)C2CCNCC2O3)cc1C` (stereo not shown) [Example 706], for which the Ki was less than 0.5 µM. Under `COc1ccc(S(=O)(=O)Oc2ccc3c(c2)C2CCNCC2O3)cc1` (stereo not shown) [Example 707] stands 0.5 to 1 µM; under `COc1cccc(S(=O)(=O)Oc2ccc3c(c2)C2CCNCC2O3)c1` (stereo not shown) [Example 708], 0.5 to 1 µM.

In the case of `Cc1ccc(S(=O)(=O)Oc2ccc3c(c2)C2CCNCC2O3)cc1F` (stereo not shown) [Example 709], the Ki is 0.5 to 1 µM. Under `O=S(=O)(Oc1ccc2c(c1)C1CCNCC1O2)c1cccc(Cl)c1` (stereo not shown) [Example 710] stands less than 0.5 µM; under `O=S(=O)(Oc1ccc2c(c1)C1CCNCC1O2)c1ccccc1Cl` (stereo not shown) [Example 711], less than 0.5 µM. Regarding `O=S(=O)(Oc1ccc2c(c1)C1CCNCC1O2)c1ccc(F)cc1F` (stereo not shown) [Example 712], the Ki is more than 1 µM. Under `O=S(=O)(Oc1ccc2c(c1)C1CCNCC1O2)c1cc2ccccc2o1` (stereo not shown) [Example 713] stands less than 0.5 µM.

For `O=S(=O)(Oc1ccc2c(c1)C1CCNCC1O2)c1cc2ccccc2o1` (stereo not shown) [Example 714], the Ki is less than 0.5 µM. In the case of `Cc1cc(C)c(S(=O)(=O)Oc2ccc3c(c2)C2CCNCC2O3)c(C)c1` (stereo not shown) [Example 715], the Ki was less than 0.5 µM.

For `CC(C)c1ccc(S(=O)(=O)Oc2ccc3c(c2)C2CCNCC2O3)cc1` (stereo not shown) [Example 716], the Ki is less than 0.5 µM. Under `Cc1c(Cl)cccc1S(=O)(=O)Oc1ccc2c(c1)C1CCNCC1O2` (stereo not shown) [Example 717] stands less than 0.5 µM; under `Cc1c(Cl)cccc1S(=O)(=O)Oc1ccc2c(c1)C1CCNCC1O2` (stereo not shown) [Example 718], less than 0.5 µM.

In the case of `Cc1ccc(S(=O)(=O)Oc2ccc3c(c2)C2CCNCC2O3)cc1Cl` (stereo not shown) [Example 719], the Ki is less than 0.5 µM. Under `O=S(=O)(Oc1ccc2c(c1)C1CCNCC1O2)c1cccc2ccccc12` (stereo not shown) [Example 720] stands less than 0.5 µM.

Turning to `O=S(=O)(Oc1ccc2c(c1)C1CCNCC1O2)c1ccc2ccccc2c1` (stereo not shown) [Example 721], the Ki is less than 0.5 µM. Under `O=S(=O)(Oc1ccc2c(c1)C1CCNCC1O2)c1cccc2cccnc12` (stereo not shown) [Example 722] stands 0.5 to 1 µM. Under `O=S(=O)(Oc1ccc2c(c1)C1CCNCC1O2)c1ccc(F)c(Cl)c1` (stereo not shown) [Example 723] stands 0.5 to 1 µM. Consider `O=S(=O)(Oc1ccc2c(c1)C1CCNCC1O2)c1cc2ccccc2s1` (stereo not shown) [Example 724], for which the Ki was less than 0.5 µM.

In the case of `O=S(=O)(Oc1ccc2c(c1)C1CCNCC1O2)c1csc2ccccc12` (stereo not shown) [Example 725], the Ki was less than 0.5 µM.

For the compound `O=S(=O)(Oc1ccc2c(c1)C1CCNCC1O2)c1csc2ccccc12` (stereo not shown) [Example 726], the Ki is less than 0.5 µM. Under `CC(C)(C)c1ccc(S(=O)(=O)Oc2ccc3c(c2)C2CCNCC2O3)cc1` (stereo not shown) [Example 727] stands 0.5 to 1 µM; under `CC(=O)Nc1ccc(S(=O)(=O)Oc2ccc3c(c2)C2CCNCC2O3)cc1` (stereo not shown) [Example 728], more than 1 µM; under `O=S(=O)(Oc1ccc2c(c1)C1CCNCC1O2)c1ccc2c(c1)OCCO2` (stereo not shown) [Example 729], less than 0.5 µM.

For `O=S(=O)(Oc1ccc2c(c1)C1CCNCC1O2)c1cccc2nsnc12` (stereo not shown) [Example 730], the Ki is more than 1 µM. Under `COc1ccc(OC)c(S(=O)(=O)Oc2ccc3c(c2)C2CCNCC2O3)c1` (stereo not shown) [Example 731] stands less than 0.5 µM. Under `COc1ccc(S(=O)(=O)Oc2ccc3c(c2)C2CCNCC2O3)cc1OC` (stereo not shown) [Example 732] stands 0.5 to 1 µM; under `O=S(=O)(Oc1ccc2c(c1)C1CCNCC1O2)c1ccc(-n2cccn2)cc1` (stereo not shown) [Example 733], 0.5 to 1 µM.

In the case of `O=S(=O)(Oc1ccc2c(c1)C1CCNCC1O2)c1ccc(-c2cnco2)cc1` (stereo not shown) [Example 734], the Ki is more than 1 µM. Under `O=S(=O)(Oc1ccc2c(c1)C1CCNCC1O2)c1ccc(C(F)(F)F)cc1` (stereo not shown) [Example 735] stands more than 1 µM; under `O=S(=O)(Oc1ccc2c(c1)C1CCNCC1O2)c1ccccc1C(F)(F)F` (stereo not shown) [Example 736], more than 1 µM.

Consider `O=S(=O)(Oc1ccc2c(c1)C1CCNCC1O2)c1cccc(C(F)(F)F)c1` (stereo not shown) [Example 737], for which the Ki is less than 0.5 µM. Under `O=S(=O)(Oc1ccc2c(c1)C1CCNCC1O2)c1ccc(Cl)c(Cl)c1` (stereo not shown) [Example 738] stands less than 0.5 µM; under `O=S(=O)(Oc1ccc2c(c1)C1CCNCC1O2)c1cc(Cl)cc(Cl)c1` (stereo not shown) [Example 739], less than 0.5 µM.

In the case of `O=S(=O)(Oc1ccc2c(c1)C1CCNCC1O2)c1cccc(Cl)c1Cl` (stereo not shown) [Example 740], the Ki was less than 0.5 µM.

For the compound `O=S(=O)(Oc1ccc2c(c1)C1CCNCC1O2)c1c(Cl)cccc1Cl` (stereo not shown) [Example 741], the Ki was less than 0.5 µM.

Turning to `O=S(=O)(Oc1ccc2c(c1)C1CCNCC1O2)c1ccc(-c2ccon2)s1` (stereo not shown) [Example 742], the Ki is less than 0.5 µM.

In the case of `O=S(=O)(Oc1ccc2c(c1)C1CCNCC1O2)c1ccc(-c2ccccc2)cc1` (stereo not shown) [Example 743], the Ki is less than 0.5 µM. Under `O=S(=O)(Oc1ccc2c(c1)C1CCNCC1O2)c1ccc(OC(F)(F)F)cc1` (stereo not shown) [Example 744] stands more than 1 µM; under `O=S(=O)(Oc1ccc2c(c1)C1CCNCC1O2)c1cccc2cnccc12` (stereo not shown) [Example 745], more than 1 µM; under `O=S(=O)(Oc1ccc2c(c1)C1CCNCC1O2)c1ccc(Oc2ccccc2)nc1` (stereo not shown) [Example 746], more than 1 µM. Under `O=S(=O)(Oc1ccc2c(c1)C1CCNCC1O2)c1csc(C(F)(F)F)c1-c1ccccc1` (stereo not shown) [Example 747] stands 0.5 to 1 µM. Under `Cc1c(S(=O)(=O)Oc2ccc3c(c2)C2CCNCC2O3)sc2ccc(Cl)cc12` (stereo not shown) [Example 748] stands less than 0.5 µM; under `O=[N+]([O-])c1ccc(S(=O)(=O)Oc2ccc3c(c2)C2CCNCC2O3)cc1` (stereo not shown) [Example 749], more than 1 µM. Turning to `O=S(=O)(Cc1cccc(C(F)(F)F)c1)Oc1ccc2c(c1)C1CCNCC1O2` (stereo not shown) [Example 750], the Ki was more than 1 µM.

Take `O=S(=O)(Cc1ccc(C(F)(F)F)cc1)Oc1ccc2c(c1)C1CCNCC1O2` (stereo not shown) [Example 751]: the Ki is more than 1 µM. Under `O=S(=O)(Cc1cccc(Cl)c1)Oc1ccc2c(c1)C1CCNCC1O2` (stereo not shown) [Example 752] stands more than 1 µM.

In the case of `O=S(=O)(Oc1ccc2c(c1)C1CCNCC1O2)c1ccccn1` (stereo not shown) [Example 753], the Ki is more than 1 µM. For `O=S(=O)(Cc1ccccc1Cl)Oc1ccc2c(c1)C1CCNCC1O2` (stereo not shown) [Example 754], the Ki was more than 1 µM.

On to `O=S(=O)(CCc1ccccc1)Oc1ccc2c(c1)C1CCNCC1O2` (stereo not shown) [Example 755], for which the inhibition constant Ki was more than 1 µM. Under `O=S(=O)(Cc1ccc(F)cc1F)Oc1ccc2c(c1)C1CCNCC1O2` (stereo not shown) [Example 756] stands more than 1 µM; under `CC12CCNCC1Oc1ccc(OS(=O)(=O)c3ccc(Cl)cc3)cc12` (stereo not shown) [Example 757], more than 1 µM.

Values taken from US8765779B2, “Tricyclic derivatives and their pharmaceutical use and compositions” (Cephalon, Inc., priority 2009, dated 2014).
